Assay results as given in article PMC9743426, “Expanding the Chemical Space of Drug-like Passerini Compounds: Can α-Acyloxy Carboxamides Be Considered Hard Drugs?” (ACS Medicinal Chemistry Letters, 2022).

Assays:
[1] = Hydrolytic stability in mouse liver microsomes (MLM); assay type: in vitro ADME; details: 30 min; for Residual substrate percentage, MLM: mouse liver microsomes 1.0 mg/mL protein, substrate 10 μM, 37 °C
Description: (§1) For all 43 compounds, a first evaluation of their chemical and metabolic stabilities toward hydrolysis was performed by incubating them in buffer under physiological conditions (50 mM Tris-HCl, pH 7.4) and in mouse liver microsomes (Table 1). This model was chosen because, similar to the human liver, both of the carboxylesterase isoforms are present. […] A more interesting trend was instead possible to observe with benzoic acids.
(§2) Hydrolytic stability in MLM and HLM
(§3) The standard incubation mixture (200 µL final volume) was carried out in a 50 mM TRIS-HCl buffer (pH 7.4) containing 150 mM KCl, tween 80 as cosolvent (0.8 mg/mg protein), and the substrate (10 μM). After pre-equilibration of the mixture, an appropriate volume of MLM or HLM suspension was added to give a final protein concentration of 1.0 mg/mL. The mixture was shaken for 30 minutes at 37 °C. Control incubations were carried out without the presence or microsomes or in pure acetonitrile. Each incubation was stopped by the addition of 200 µL ice-cold acetonitrile, vortexed and centrifuged at 13000 rpm for 5 min. The supernatants were analyzed by LC-HRMS. […]

[2] = Hydrolytic (chemical) stability in Tris-HCl buffer pH 7.4; assay type: physicochemical; details: 50 mM Tris-HCl buffer pH 7.4, incubation 30 min, without microsomes
Description: as §1, §2, §3

[3] = Hydrolytic stability in human liver microsomes (HLM); assay type: in vitro ADME; details: for Residual substrate percentage, HLM: human liver microsomes 1.0 mg/mL protein, substrate 10 μM, 37 °C; for Residual substrate percentage, HLM / Hydrolytic stability in human liver microsomes (in words): 30 min; for Hydrolytic stability toward esterases (in words): liver microsomes, species stated only for the stable ester (human liver)
Description: This was made in light of the fact that the overall metabolizing capability of murine hepatic enzymes, including carboxylesterases, is supposed to be higher compared to the human ones.[17]
as §2, §3

Structure (SMILES) | Residual substrate percentage, MLM [1] [%] | Residual substrate percentage, buffer [2] [%] | Residual substrate percentage, HLM [3] [%] | Hydrolytic stability in human liver microsomes (in words) [3] | Hydrolysis of the ester group in mouse liver microsomes (in words) [1] | Hydrolytic stability toward esterases (in words) [3] | Hydrolytic stability toward esterases (in words) ([3]; listed as methyl 2,6-dimethylbenzoate)
COc1ccc(C(OC(=O)c2ccccc2)C(=O)NC(C)(C)C)cc1 (centres unmarked) [Compound 63] | <1 | 92 | – | – | – | – | –
CCCCCCC(OC(=O)c1cccs1)C(=O)NC(C)(C)C (centres unmarked) [Compound 64] | <1 | >99 | <1 | instability | – | – | –
CC(C)(C)NC(=O)COC(=O)c1c(F)cccc1F [Compound 85] | <1 | >99 | – | – | completely hydrolyzed | – | –
CC(C)(C)NC(=O)COC(=O)C(=O)c1ccccc1 [Compound 83] | <1 | <1 | – | – | completely unstable | – | –
Cc1cccc(C)c1C(=O)OCC(=O)NC(C)(C)C [Compound 79] | 94 | 95 | – | – | – | – | –
CC(C)C(OC(=O)c1ccc([N+](=O)[O-])cc1)C(=O)NC(C)(C)C (centres unmarked) [Compound 69] | <1 | >99 | – | – | – | – | –
CC(C)(C)NC(=O)COC(=O)c1ccccc1Cl [Compound 90] | <1 | >99 | – | – | the hydrolysis of the ester was complete | – | –
CC(C)(C)NC(=O)C(OC(=O)c1ccccc1)c1ccccc1 (centres unmarked) [Compound 62] | <1 | >99 | – | – | – | – | –
COC(=O)c1c(C)cccc1C [Compound 12, methyl 2,6-dimethylbenzoate, reference compound] | 77 | > 99 | > 99 | – | – | stable toward esterases | completely resistant to esterases
CC(C)C(OC(=O)c1ccccc1)C(=O)NC(C)(C)C (centres unmarked) [Compound 59] | <1 | 94 | – | – | – | – | –
CC(C)(C)NC(=O)COC(=O)c1ccccc1 [Compound 61] | <1 | >99 | – | – | – | – | –
CC(C)C(OC(=O)CCCCCc1ccccc1)C(=O)NC(C)(C)C (centres unmarked) [Compound 75, 1-(tert-butylamino)-3-methyl-1-oxobutan-2-yl 6-phenylhexanoate] | <1 | >99 | – | – | easily hydrolyzed | – | –
CC(C)C(OC(=O)C(C)(C)C)C(=O)NC(C)(C)C (centres unmarked) [Compound 73] | 30 | >99 | 52 | moderately more stable | easily hydrolyzed | – | –
CCCCCCC(OC(=O)c1ccccc1)C(=O)NC(C)(C)C (centres unmarked) [Compound 60] | <1 | 93 | – | – | – | – | –
CC(C)(C)NC(=O)C(OC(=O)c1ccccc1)c1ccc(Cl)cc1 (centres unmarked) [Compound 72] | <1 | >99 | – | – | rapidly cleaved | – | –
CC(C)(C)NC(=O)COC(=O)c1ccccc1-c1ccccc1 [Compound 88] | – | >99 | – | – | – | – | –
COc1ccc(C(=O)OC(C(=O)NC(C)(C)C)C(C)C)cc1 (centres unmarked) [Compound 66] | <1 | 92 | – | – | – | – | –
Cc1ccccc1C(=O)OCC(=O)NC(C)(C)C [Compound 81] | <1 | >99 | – | – | the hydrolysis of the ester was complete | – | –
CC(=O)OC(C(=O)NC(C)(C)C)C(C)C (centres unmarked) [Compound 70] | 5 | 94 | – | – | easily hydrolyzed | – | –
Cc1c(Br)cccc1C(=O)OCC(=O)NC(C)(C)C [Compound 89] | 1 | >99 | <1 | easy hydrolysis | the hydrolysis of the ester was complete | – | –

Structure (SMILES) | Residual substrate percentage, MLM [1] [%] | Residual substrate percentage, buffer [2] [%] | Residual substrate percentage, HLM [3] [%] | Hydrolytic stability in human liver microsomes (in words) [3] | Hydrolysis of the ester group in mouse liver microsomes (in words) [1] | Hydrolytic stability toward esterases (in words) [3] | Hydrolytic stability toward esterases (in words) ([3]; listed as methyl 2,6-dimethylbenzoate)
CCCCCC(=O)OC(C(=O)NC(C)(C)C)C(C)C (centres unmarked) [Compound 71] | <1 | 91 | – | – | easily hydrolyzed | – | –
CC(C)C(OC(=O)COc1ccccc1)C(=O)NC(C)(C)C (centres unmarked) [Compound 76, 1-(tert-butylamino)-3-methyl-1-oxobutan-2-yl 2-phenoxyacetate] | <1 | >99 | – | – | completely unstable | – | –
Cc1cccc(C)c1C(=O)OCC(=O)NCc1ccccc1 [Compound 94] | >99 | >99 | – | – | – | – | –
CC(C)(C)NC(=O)COC(=O)C12CC3CC(CC(C3)C1)C2 [Compound 97] | 1 | >99 | 2 | instability | rapidly metabolized | – | –
CC(C)C(OC(=O)c1ccc(Cl)cc1)C(=O)NC(C)(C)C (centres unmarked) [Compound 68] | <1 | >99 | – | – | – | – | –
CCCCCCCCCCCC(=O)OC(C(=O)NC(C)(C)C)C(C)C (centres unmarked) [Compound 77, 1-(tert-butylamino)-3-methyl-1-oxobutan-2-yl dodecanoate] | 7 | 77 | – | – | easily hydrolyzed | – | –
COC(=O)c1ccccc1 [Compound 11, methyl benzoate, reference compound] | < 1 | > 99 | < 1 | – | – | – | –
CC(C)C(OC(=O)/C=C/c1ccccc1)C(=O)NC(C)(C)C (centres unmarked) [Compound 65] | <1 | >99 | 3 | instability | completely unstable | – | –
CC(C)(C)NC(=O)COC(=O)Cc1c(Cl)cccc1Cl [Compound 82] | 1 | >99 | – | – | easily hydrolyzed | – | –
CCC(C(=O)OCC(=O)NC(C)(C)C)c1ccccc1 (centres unmarked) [Compound 92] | <1 | >99 | – | – | easily hydrolyzed | – | –
CC(C)(C)NC(=O)COC(=O)c1ccccc1I [Compound 87] | <1 | >99 | – | – | the hydrolysis of the ester was complete | – | –
CC(C)(C)NC(=O)COC(=O)C(C)(C)Oc1ccc(Cl)cc1 [Compound 84] | <1 | >99 | 2 | instability | completely unstable | – | –
Cc1ccccc1C(OC(=O)c1ccccc1)C(=O)NC(C)(C)C (centres unmarked) [Compound 56] | <1 | >99 | – | – | – | – | –
Cc1ccc(C(=O)OC(C(=O)NC(C)(C)C)C(C)C)cc1 (centres unmarked) [Compound 67] | <1 | 94 | – | – | – | – | –
CC(C)C(OC(=O)Cc1ccccc1)C(=O)NC(C)(C)C (centres unmarked) [Compound 74, 1-(tert-butylamino)-3-methyl-1-oxobutan-2-yl 2-phenylacetate] | 17 | >99 | – | – | easily hydrolyzed | – | –
CC(C)(C)NC(=O)COC(=O)c1c(Cl)cccc1Cl [Compound 95] | 78 | >99 | – | – | – | – | –
CC(C)(C)NC(=O)COC(=O)C(C)(C)c1ccc(Br)cc1 [Compound 91] | 12 | >99 | – | – | easily hydrolyzed | – | –
CC(C)(C)NC(=O)COC(=O)c1c(Cl)cccc1C(F)(F)F [Compound 96] | >99 | >99 | – | – | – | – | –
CC(C)(C)NC(=O)COC(=O)c1ccccc1Br [Compound 86] | <1 | >99 | – | – | the hydrolysis of the ester was complete | – | –
Cc1cccc(C)c1C(=O)OC(C(=O)NC(C)(C)C)C(C)C (centres unmarked) [Compound 93] | >99 | >99 | – | – | – | – | –
